Where no end group is shown, it is not given here.
Legend:
uninfected MEFs = assay: Cell viability of uninfected MEFs, trypan blue exclusion; conditions: 80 μM, mock-infected, 3 days
Protocol: Cells were harvested at 3 dpi, and cell viability was assessed by trypan blue exclusion assay for both uninfected and infected groups. The standard error of the mean from three different experiments were plotted as error bars.
MEFs were plated in 24-well tissue-culture plates and grown to confluency in triplicates. […] At 3 dpi, the CMC (carboxymethylcellulose) + DMEM overlay was removed. The cells were then harvested by trypsinization to determine the cell viability using trypan blue exclusion with a TC20 automated cell counter (BioRad Laboratories, Hercules, CA, USA) following the manufacturer’s protocol. […] The cells were washed twice with PBS and overlayed with CMC + DMEM and incubated for 3 days. […] The percentage of cell survival was plotted for different treatment groups, and data were analyzed by one-way ANOVA using Tukey post hoc test.

HIV = tested on: HIV; parameters: method as in PMID 8312047; conditions: cited from earlier work
Hepatitis B and D = tested on: Hepatitis B and D; parameters: method as in PMID 20007265; conditions: cited from earlier work
[1] = Organ biodistribution by ex vivo whole-organ fluorescence imaging in mice; parameters: species or system mouse (Balb/c); conditions: rhodamine-labeled, subcutaneous, 4 h post-injection, ex vivo IVIS imaging, female mice n = 4
Protocol: (§1) Plasma pharmacokinetics (a) were determined for 72 h after injection. In a separate cohort of mice (females, n = 4 per group), major organ biodistribution was determined 4 h after injection by ex vivo whole-organ fluorescence imaging (b and c). The standard deviations were plotted as error bars.
(§2) Blood samples were collected from the tail vein at different time points and centrifuged to collect plasma. […] For the biodistribution, a separate cohort of mice (female, n = 4 per group) were euthanized four hours after the injection with proteins or saline control, and the brain, spleen, liver, lungs, kidneys, and heart were harvested and assessed by ex-vivo whole organ imaging using the In Vivo Imaging System (IVIS, Perkin Elmer). […] To determine pharmacokinetic parameters, plasma concentrations during the clearance phase (from the peak of the plasma concentration curve) were fit using a two-compartment pharmacokinetic model as described previously using GraphPad Prism[32].

[2] = Plasma pharmacokinetics of rhodamine-labeled constructs in mice; format: in vivo, mouse (Balb/c)
Protocol: as §1, §2

Nc1nc(O)c2ncn(COC(CO)CO)c2n1 [GCV, ganciclovir]
cell viability of uninfected MEFs (uninfected MEFs): not affected

Enfuvirtide
IC50 (HIV): nanomolar range

Myrcludex B
concentrations at which efficacy was demonstrated (Hepatitis B and D): picomolar concentrations

NKLVYTGRL [P10]
accumulation in the kidneys [1]: much lower levels than ELP-P10
accumulation in the liver [1]: much lower levels than ELP-P10
Area Under Curve ([2]; 500 nmol/Kg subcutaneous, female mice n = 4 per group, plasma fluorescence over 72 h): 1185 ± 383 µM·h
time after which clearance from plasma began ([2]; subcutaneous, mouse plasma): 2 h
